The conditions of series [1]: Novartis everolimus study, rats; cited from earlier work.
The conditions of series [2]: oral; cited from earlier work.
Series [3] is described as follows: Protein binding.
The subject of series [4] is Hantavirus. Particulars: 0.05 μM, lowest concentration studied; cited from earlier work.

SMILES strings stand for the structures.

A word on the bioavailability: it is the share of a dose that reaches the circulation, judged against a reference dose that is usually intravenous. The term fraction unbound denotes the share of the substance not bound to proteins or other matrix. The low end stands for little free substance, the high end for much free substance.

Take `CO[C@H]1C[C@@H]2CC[C@@H](C)[C@@](O)(O2)C(=O)C(=O)N2CCCC[C@H]2C(=O)O[C@H]([C@H](C)C[C@@H]2CC[C@@H](OCCO)[C@H](OC)C2)CC(=O)[C@H](C)/C=C(\C)[C@@H](O)[C@@H](OC)C(=O)[C@H](C)C[C@H](C)/C=C/C=C/C=C/1C` [everolimus]: in series [1], the “tissue distribution, highest drug concentrations” value is “highest drug concentrations were in the gastrointestinal tract and liver”. Regarding `CO[C@H]1C[C@@H]2CC[C@@H](C)[C@@](O)(O2)C(=O)C(=O)N2CCCC[C@H]2C(=O)O[C@H]([C@H](C)C[C@@H]2CC[C@@H](O)[C@H](OC)C2)CC(=O)[C@H](C)/C=C(\C)[C@@H](O)[C@@H](OC)C(=O)[C@H](C)C[C@H](C)/C=C/C=C/C=C/1C` [sirolimus, Rapamycin], the bioavailability in series [2] was around 14%. This compound had a fraction unbound in series [3] of 0.049.

With `CO[C@H]1C[C@@H]2CC[C@@H](C)[C@@](O)(O2)C(=O)C(=O)N2CCCC[C@H]2C(=O)O[C@H]([C@H](C)C[C@@H]2CC[C@@H](OC(=O)C(C)(CO)CO)[C@H](OC)C2)CC(=O)[C@H](C)/C=C(\C)[C@@H](O)[C@@H](OC)C(=O)[C@H](C)C[C@H](C)/C=C/C=C/C=C/1C` [temsirolimus], the “reduction in virus titers” value in series [4] was 50%.

Source of the values: patent publication US20240100025A1, “Materials and Methods for Treating Viral and Other Medical Conditions” (Biotronik AG, priority 2020, published 2024).
